According to patent US8603482B2, “Compositions and methods for cancer immunotherapy” (Eisai R&D Management Co., Ltd., priority 2005, dated 2013):
Where “and” joins values, the source holds several entries; their conditions need not be identical. Equal entries are not always repeated.

Tests used:
[1] = test system: B16F10 murine melanoma cells; assay: Survival of B16F10 melanoma-bearing mice, i.p. E6020 with s.c. GM-CSF-secreting tumor cell vaccine; assay type: in vivo, B6 mice (C57BL/6 mice); settings: i.p. E6020 plus s.c. irradiated B16-GM-CSF cells at separate sites, three days after s.c. B16F10 inoculation; FIG. 1
Text: To determine the effect of E6020, a sodium salt of ER 804057, when administered intraperitoneally with a cancer vaccine, e.g., granulocyte-macrophage colony stimulating factor (GM-CSF) secreting tumor cells, a mouse model using melanoma cells was used.
E6020 is a TLR4 (Toll-like receptor-4) agonist. B6 mice (C57BL/6 mice) were engrafted subcutaneously with 1×10^6 syngeneic B16F10 murine melanoma cells. Three days after tumor cell inoculation, the mice were either (1) vaccinated subcutaneously (s.c.) with 1×10^6 B16F10 tumor cells that were genetically modified to stably express and secrete murine GM-CSF (B16-GM-CSF cells); (2) vaccinated intraperitoneally (i.p.) with E6020; or (3) were treated with a combination of s.c. GM-CSF cell vaccination and i.p. E6020 (the GM-CSF cell vaccination and E6020 vaccination were administered at separate sites in the mice). In these experiments, the GM-CSF cells were inactivated by gamma-irradiation prior to inoculation. Survival of the animals was monitored.

[2] = test system: B16F10 murine melanoma cells; assay: Survival of B16F10 melanoma-bearing mice, intratumoral GM-CSF cells with E6020; assay type: in vivo, B6 mice; settings: intratumoral GM-CSF cells in combination with E6020 (about 3-10 μg) when tumors palpable; versus untreated or GM-CSF cells alone; FIG. 2
Description: The effect of E6020 on treatment of B6 mice that were engrafted subcutaneously with 1×10^6 syngeneic B16F10 murine melanoma cells was examined. When tumors became palpable, the mice were injected intratumorally with GM-CSF cells alone, or in combination with E6020 (about 3-10 μg). Survival of the animals was monitored.

MUC1 IL-10−/− mice = assay: MUC-1 vaccine with E6020 adjuvant in mice that develop IBD followed by colon adenocarcinoma; assay type: in vivo, mouse
Description: To test the effects of a MUC-1 vaccine with E6020 adjuvant for treating inflammatory bowel disease (IBD) and subsequent development of colon adenocarcinoma, an engineered mouse strain that lacks the IL-10 gene and expresses transgenic human MUC1 was used. Such mice spontaneously develop intestinal inflammation resembling IBD followed by colon adenocarcinoma. […] 4, 2006.
In these experiments, mice were immunized intranasally with […] of Tn MUC100mer ([…])×5, SEQ ID NO:1) and […] of E6020. Animals were vaccinated at about 4.5 weeks and boosted at about 6.5 weeks and 9 weeks.

EGFRvIII peptide = assay: EGFRvIII peptide-specific antibody titers by ELISA after immunization with peptide-KLH conjugate; assay type: in vivo, C57/BL6J mice; settings: for Geometric mean titer: IgG1 / Geometric mean titer: IgG2a: antigen administered with the named adjuvant, 8 animals; for IgG1 antibody titer to EGFRvIII peptide, individual animals / IgG2a antibody titer to EGFRvIII peptide, individual animals: s.c. peptide-KLH conjugate 25 μg with E6020 3 μg and/or GM-CSF 5 μg, three immunizations at three-week intervals, titer = last serum dilution with signal 0.25 OD units above background
Description: To determine whether an adjuvant can enhance the effect of an oncology antigen (i.e., an antigen that can be used to vaccinate an animal against a cancer), C57/BL6J mice were immunized subcutaneously with a tumor-associated peptide, LEEKKGNYVVTDHC (SEQ ID NO: 2) (derived from a mutant form of EGFR, EGFRvIII) conjugated to the protein carrier keyhole limpet hemocyanin (KLH), with or without E6020 or murine GM-CSF, a cytokine used in cancer vaccine trials to boost immune response. E6020 was dosed at 3 μg, GM-CSF at 5 μg and the peptide-KLH conjugate at 25 μg per dose. Mice were immunized three times at intervals of three weeks. Serum was prepared from mice two weeks after each immunization and tested for EGFRvIII peptide-specific antibodies using ELISA on plates coated with EGFRvIII peptide conjugated to bovine serum albumin. The results in Table 2 are presented as titers from individual animals. The titer is defined as the last serum dilution at which a signal at 0.25 OD units above background was observed.

[3] = addition of E6020 to the MUC-1 vaccine

Which results are given for CCCCCCCCCCCC(=O)CC(=O)N[C@H](COCC[C@@H](CCCCCCC)OC(=O)CCCCCCCCCCC)COP(=O)(O)OCCNC(=O)NCCOP(=O)(O)OC[C@@H](COCC[C@@H](CCCCCCC)OC(=O)CCCCCCCCCCC)NC(=O)CC(=O)CCCCCCCCCCC [E6020]?
therapeutic efficacy (survival of tumor-bearing mice) [1]: enhanced the therapeutic efficacy of the GM-CSF cells; survival of tumor-bearing mice [2]: increased survival; appearance of histologically detected tumors (MUC1 IL-10−/− mice; [3]): suppresses the appearance of histologically detected tumors; progression to rectal prolapse associated with IBD (MUC1 IL-10−/− mice; [3]): slow the progression to rectal prolapse associated with IBD; Colon tumors (MUC1 IL-10−/− mice; mice with colon tumors / mice treated, MUC1 IL-10−/− mice): 3/3; Geometric mean titer: IgG1 (EGFRvIII peptide): 20182; Geometric mean titer: IgG2a (EGFRvIII peptide): 10091; IgG1 antibody titer to EGFRvIII peptide, individual animals (EGFRvIII peptide): 24000 (6×) and 48000 and 3000; IgG2a antibody titer to EGFRvIII peptide, individual animals (EGFRvIII peptide): 12000 (3×) and 24000 and 48000 and 1500 and 6000 (2×); effect on antigen-specific IgG2a titers (in words) (EGFRvIII peptide; vaccination with EGFRvIII peptide-KLH): enhanced the mean titer of antigen-specific IgG2a

B1: GM-CSF: murine GM-CSF, a cytokine used in cancer vaccine trials to boost immune response (protein, UniProt P01587 18-141, looked up)
Granulocyte-macrophage …: APTRSPITVTRPWKHVEAIKEALNLLDDMPVTLNEEVEVVSNEFSFKKLTCVQTRLKIFEQGLRGNFTKLKGALNMTASYYQTYCPPTPETDCETQVTTYADFIDSLKTFLTDIPFECKKPGQK
B1 was tested. Which “Geometric mean titer: IgG1” value (EGFRvIII peptide) did it give?
Its value is 24000.

What about the “Geometric mean titer: IgG2a” value (EGFRvIII peptide) of the same molecule?
Its value is 3568.

What about the “IgG1 antibody titer to EGFRvIII peptide, individual animals” value (EGFRvIII peptide) of the same molecule?
Its value is 24000 (2×) and 48000 (3×) and 12000 (3×).

What about the “IgG2a antibody titer to EGFRvIII peptide, individual animals” value (EGFRvIII peptide) of the same molecule?
The value was 3000 (2×) and 6000 (3×) and 24000 and 750 (2×).
